From patent publication US10975399B2, “Use of nitric oxide or nitric oxide donor for inducing the production of triacylglycerols in microalgae” (Commissariat A L'energie Atomique Et Aux Energies …, priority 2016, dated 2021)

Tests used:
[1] = tested on: Phaeodactylum tricornutum; assay: TAG accumulation by Nile Red staining; assay type: cell-based; conditions: 1 mM, 2-day incubation, 500 μL volume, 10×ESAW medium
Procedure: FIGS. 1 to 4: Effect of increasing concentrations of SNAP on the production of TAG in Phaedocatylum tricornutum. The medium used was 10×ESAW; incubation was performed in 500 μl, inoculated at 1E+06 cells/ml, with immediate addition of chemicals. Measurements were performed after 2 days of incubation. Data of FIGS. 1 and 2 and 3 are the results of 3 biological replicates, FIG. 4 was a time course without replicates. NAP was used as a non-active analogue of SNAP. FIG. 2: Effect of increasing concentrations of SNAP on TAG level per cell. TAG level per cell is given in relative fluorescence units/10^6 cells. FIG. 3: Effect of increasing concentrations of SNAP on TAG productivity. TAG productivity is given in relative fluorescence unit (Rfu) corresponding to the fluorescence of Nile Red per mL and per day. […] Growth was evaluated by cell counting using a Malassez counting chamber, or by the absorption at 750 nm using a plate reader. […] Accumulation of TAG droplets was monitored by Nile Red (Sigma Aldrich) fluorescent staining (Excitation wavelength at 485 nm; emission at 525 nm) following the principles previously described (Abida et al., 2015). In brief, cells were diluted and adjusted to a cell density that was linearly correlated with Nile Red fluorescence. […] Alternatively, Nile red fluorescence values were normalized to the cell concentration.

[2] = tested on: Phaeodactylum tricornutum; assay: Growth of P. tricornutum incubated with the NO donor (cell counting); assay type: cell-based; conditions: 1 mM, 2-day incubation, 500 μL volume, 10×ESAW medium, FIG. 1
Procedure: FIGS. 1 to 4: Effect of increasing concentrations of SNAP on the production of TAG in Phaedocatylum tricornutum. The medium used was 10×ESAW; incubation was performed in 500 μl, inoculated at 1E+06 cells/ml, with immediate addition of chemicals. Measurements were performed after 2 days of incubation. Data of FIGS. 1 and 2 and 3 are the results of 3 biological replicates, FIG. 4 was a time course without replicates. NAP was used as a non-active analogue of SNAP. FIG. 1: Effect of increasing concentrations of SNAP on growth. Growth is measured in cell/mL. Phaeodactylum tricornutum (Ptl) Bohlin Strain 8.6 CCMP2561 (Culture Collection of Marine Phytoplankton, now known as NCMA: National Center for Marine Algae and Microbiota) was used in all experiments. Ptl was grown at 20° C. in 250 mL flask in artificial seawater (ESAW) medium (composition of the medium see table 1) using ten times enriched nitrogen and phosphate sources (5.49·10^−3 M NaNO3 and 2.24·10^−4 NaH3PO4) called “10×ESAW”, or nitrogen-depleted medium. Cells were grown on a 12:12 light (30 μE m^−2sec^−1)/dark cycle. Cells were sub-cultured twice a week by inoculating 1·10^6 cells/ml with fresh media. Growth was evaluated by cell counting using a Malassez counting chamber, or by the absorption at 750 nm using a plate reader. S-Nitroso-N-acetylpenicillamine (SNAP) is a compound that spontaneously releases NO, when dissolved.

CC(=O)N[C@H](C(=O)O)C(C)(C)SN=O (racemic) [SNAP, S-Nitroso-N-acetylpenicillamine]
increase of productivity (level of TAG per volume of culture and per day) ([1]; Nile Red Rfu per mL and per day, FIG. 3): > 2 fold
increase of TAG per cell ([1]; Nile Red fluorescence per 10^6 cells, FIG. 2): 2.2 fold
cell growth [2]: reduction of cell growth
